From patent US6914075B2, “Cystine derivative and agent for suppressing activation of inflammatory factors” (Ajinomoto Co., Inc., priority 2001, dated 2005)

System: NF-κB
Assay: Test of the potency of NF-κB activation suppression (gel shift assay, UVB-irradiated human epidermal cells)
Type: cell-based
Conditions: added 18 h before UVB 50 mJ/cm^2, nuclear protein 4 to 5 hours later
Method: Test compounds shown in Table 1 were added individually to human epidermal cells at confluency in a culture plate. 18 hours later, the culture broth was exchanged with a phenol red-free culture medium. Using Dermalei M-DMR-80 (manufactured by Toshiba Medical Supplies, Co., Ltd.), the cells were irradiated with an ultraviolet ray (UVB: 50 mJ/cm^2). 4 to 5 hours later, the cells were recovered and the nuclear protein was extracted using a general method. By using a gel shift assay method, the activated NF-κB in the resulting nuclear protein was detected. Determination of NF-κB was conducted based on counting the radioactivity of labeled NF-κB using a bioimaging analyzer BAS2000 (manufactured by Fuji Film Co., Ltd.). The ratio of NF-κB activation suppression by the inventive compounds compared with a test compound was calculated by the following formula (1). Ratio (%) of NF-κB activation suppression=[1-(A1−A3)/(A2−A3)]×100 (1)
A1: radioactivity of NF-κB band with addition of test compound
A2: radioactivity of NF-κB band without addition of test compound
A3: radioactivity of NF-κB band without addition of test compound and without ultraviolet irradiation

SMILES	Suppression ratio (%) of NF-κB activation (test compound 0.1 mM) [%]	Suppression ratio (%) of NF-κB activation (test compound 0.5 mM) [%]	Suppression ratio (%) of NF-κB activation (test compound 1.0 mM) [%]	Suppression ratio (%) of NF-κB activation (test compound 10 mM) [%]	Suppression ratio (%) of NF-κB activation (test compound 30 mM) [%]
O=C(O)[C@H](CSSC[C@H](NCc1ccccc1O)C(=O)O)NCc1ccccc1O [N,N′-Bis(2-hydroxybenzyl)-L-cystine]	41	86	> 100		
CC(=O)N[C@@H](CSSC[C@H](NC(C)=O)C(=O)O)C(=O)O [N,N′-Diacetyl-L-cystine]				48	67
O=C(O)[C@H](CO)NCc1ccccc1O [N-(2-Hydroxybenzyl)-L-serine]				17	34
